Reference: US11168057B2, “Polymorphs and co-crystals of roxadustat” (DR. REDDY'S LABORATORIES LIMITED, priority 2017, dated 2021)
Blank lines part the entries; values can stand above or below the molecule they belong to.

Test: Storage stability in three ICH conditions for three months (water content, purity, PXRD)
Format: physicochemical
Conditions: for storage stability: all three ICH conditions for three months
From the text: The data presented below substantiate that the Form RLP has a high storage stability. Pack-1 (Normal LDPE Bag with 1 g Silica Gel, Packed in a HDPE Container):
Pack-2 (Black Colored LDPE Bag with 1 g Silica Gel, Packed in a HDPE Container):
The data presented below substantiate that the Form RNM has a high storage stability.
Pack-1 (LDPE Bag with 1 g Molecular Sieve, Packed in a HDPE Container):
Pack-2 (LDPE Bag with 1 g Silica Gel, Packed in a HDPE Container): […]

[1] = Pack-1 (LDPE Bag with 1 g Molecular Sieve, HDPE Container), 2-8° C., 1st Month
[2] = Pack-1 (LDPE Bag with 1 g Molecular Sieve, HDPE Container), 2-8° C., 3rd Month
[3] = Pack-1 (LDPE Bag with 1 g Molecular Sieve, HDPE Container), 2-8° C., Initial
[4] = Pack-1 (LDPE Bag with 1 g Molecular Sieve, HDPE Container), 25 ± 2° C., 60 ± 5% RH, 1st Month
[5] = Pack-1 (LDPE Bag with 1 g Molecular Sieve, HDPE Container), 25 ± 2° C., 60 ± 5% RH, 3rd Month
[6] = Pack-1 (LDPE Bag with 1 g Molecular Sieve, HDPE Container), 25 ± 2° C., 60 ± 5% RH, Initial
[7] = Pack-1 (LDPE Bag with 1 g Molecular Sieve, HDPE Container), 40 ± 2° C., 75 ± 5% RH, 1st Month
[8] = Pack-1 (LDPE Bag with 1 g Molecular Sieve, HDPE Container), 40 ± 2° C., 75 ± 5% RH, 3rd Month
[9] = Pack-1 (LDPE Bag with 1 g Molecular Sieve, HDPE Container), 40 ± 2° C., 75 ± 5% RH, Initial
[10] = Pack-2 (LDPE Bag with 1 g Silica Gel, HDPE Container), 2-8° C., 1st Month
[11] = Pack-2 (LDPE Bag with 1 g Silica Gel, HDPE Container), 2-8° C., 3rd Month
[12] = Pack-2 (LDPE Bag with 1 g Silica Gel, HDPE Container), 2-8° C., Initial
[13] = Pack-2 (LDPE Bag with 1 g Silica Gel, HDPE Container), 25 ± 2° C., 60 ± 5% RH, 1st Month
[14] = Pack-2 (LDPE Bag with 1 g Silica Gel, HDPE Container), 25 ± 2° C., 60 ± 5% RH, 3rd Month
[15] = Pack-2 (LDPE Bag with 1 g Silica Gel, HDPE Container), 25 ± 2° C., 60 ± 5% RH, Initial
[16] = Pack-2 (LDPE Bag with 1 g Silica Gel, HDPE Container), 40 ± 2° C., 75 ± 5% RH, 1st Month
[17] = Pack-2 (LDPE Bag with 1 g Silica Gel, HDPE Container), 40 ± 2° C., 75 ± 5% RH, 3rd Month
[18] = Pack-2 (LDPE Bag with 1 g Silica Gel, HDPE Container), 40 ± 2° C., 75 ± 5% RH, Initial
[19] = Pack-1 (Normal LDPE Bag with 1 g Silica Gel, HDPE Container), 2-8° C., 1st Month
[20] = Pack-1 (Normal LDPE Bag with 1 g Silica Gel, HDPE Container), 2-8° C., 3rd Month
[21] = Pack-1 (Normal LDPE Bag with 1 g Silica Gel, HDPE Container), 2-8° C., Initial
[22] = Pack-1 (Normal LDPE Bag with 1 g Silica Gel, HDPE Container), 25 ± 2° C., 60 ± 5% RH, 1st Month
[23] = Pack-1 (Normal LDPE Bag with 1 g Silica Gel, HDPE Container), 25 ± 2° C., 60 ± 5% RH, 3rd Month
[24] = Pack-1 (Normal LDPE Bag with 1 g Silica Gel, HDPE Container), 25 ± 2° C., 60 ± 5% RH, Initial
[25] = Pack-1 (Normal LDPE Bag with 1 g Silica Gel, HDPE Container), 40 ± 2° C., 75 ± 5% RH, 1st Month
[26] = Pack-1 (Normal LDPE Bag with 1 g Silica Gel, HDPE Container), 40 ± 2° C., 75 ± 5% RH, 3rd Month
[27] = Pack-1 (Normal LDPE Bag with 1 g Silica Gel, HDPE Container), 40 ± 2° C., 75 ± 5% RH, Initial
[28] = Pack-2 (Black Colored LDPE Bag with 1 g Silica Gel, HDPE Container), 2-8° C., 1st Month
[29] = Pack-2 (Black Colored LDPE Bag with 1 g Silica Gel, HDPE Container), 2-8° C., 3rd Month
[30] = Pack-2 (Black Colored LDPE Bag with 1 g Silica Gel, HDPE Container), 2-8° C., Initial
[31] = Pack-2 (Black Colored LDPE Bag with 1 g Silica Gel, HDPE Container), 25 ± 2° C., 60 ± 5% RH, 1st Month
[32] = Pack-2 (Black Colored LDPE Bag with 1 g Silica Gel, HDPE Container), 25 ± 2° C., 60 ± 5% RH, 3rd Month
[33] = Pack-2 (Black Colored LDPE Bag with 1 g Silica Gel, HDPE Container), 25 ± 2° C., 60 ± 5% RH, Initial
[34] = Pack-2 (Black Colored LDPE Bag with 1 g Silica Gel, HDPE Container), 40 ± 2° C., 75 ± 5% RH, 1st Month
[35] = Pack-2 (Black Colored LDPE Bag with 1 g Silica Gel, HDPE Container), 40 ± 2° C., 75 ± 5% RH, 3rd Month
[36] = Pack-2 (Black Colored LDPE Bag with 1 g Silica Gel, HDPE Container), 40 ± 2° C., 75 ± 5% RH, Initial

- PXRD [1]: No change
- Purity [1]: 99.66%
- Water content [1]: 0.08 % w/w
- PXRD [2]: No change
- Purity [2]: 99.66%
- Water content [2]: 0.08 % w/w
- PXRD [3]: Form RNM
- Purity [3]: 99.57%
- Water content [3]: 0.12 % w/w
- PXRD [4]: No change
- Purity [4]: 99.63%
- Water content [4]: 0.07 % w/w
- PXRD [5]: No change
- Purity [5]: 99.64%
- Water content [5]: 0.08 % w/w
- PXRD [6]: Form RNM
- Purity [6]: 99.57%
- Water content [6]: 0.12 % w/w
- PXRD [7]: No change
- Purity [7]: 99.65%
- Water content [7]: 0.10 % w/w
- PXRD [8]: No change
- Purity [8]: 99.62%
- Water content [8]: 0.07 % w/w
- PXRD [9]: Form RNM
- Purity [9]: 99.57%
- Water content [9]: 0.12 % w/w
- PXRD [10]: No change
- Purity [10]: 99.62%
- Water content [10]: 0.10 % w/w
- PXRD [11]: No change
- Purity [11]: 99.65%
- Water content [11]: 0.08 % w/w
- PXRD [12]: Form RNM
- Purity [12]: 99.57%
- Water content [12]: 0.12 % w/w
- PXRD [13]: No change
- Purity [13]: 99.65%
- Water content [13]: 0.07 % w/w
- PXRD [14]: No change
- Purity [14]: 99.64%
- Water content [14]: 0.11 % w/w
- PXRD [15]: Form RNM
- Purity [15]: 99.57%
- Water content [15]: 0.12 % w/w
- PXRD [16]: No change
- Purity [16]: 99.61%
- Water content [16]: 0.12 % w/w
- PXRD [17]: No change
- Purity [17]: 99.62%
- Water content [17]: 0.07 % w/w
- PXRD [18]: Form RNM
- Purity [18]: 99.57%
- Water content [18]: 0.12 % w/w
- storage stability: stable
Compound: Cc1nc(C(=O)NCC(=O)O)c(O)c2ccc(Oc3ccccc3)cc12.NC(=O)c1cccnc1 [Form RNM]

- PXRD [19]: No change
- Purity [19]: 99.84%
- Water content [19]: 0.11 % w/w
- PXRD [20]: No change
- Purity [20]: 99.85%
- Water content [20]: 0.14 % w/w
- PXRD [21]: Form RLP
- Purity [21]: 99.84%
- Water content [21]: 0.09 % w/w
- PXRD [22]: No change
- Purity [22]: 99.84%
- Water content [22]: 0.14 % w/w
- PXRD [23]: No change
- Purity [23]: 99.86%
- Water content [23]: 0.12 % w/w
- PXRD [24]: Form RLP
- Purity [24]: 99.84%
- Water content [24]: 0.09 % w/w
- PXRD [25]: No change
- Purity [25]: 99.84%
- Water content [25]: 0.16 % w/w
- PXRD [26]: No change
- Purity [26]: 99.83%
- Water content [26]: 0.21 % w/w
- PXRD [27]: Form RLP
- Purity [27]: 99.84%
- Water content [27]: 0.09 % w/w
- PXRD [28]: No change
- Purity [28]: 99.82%
- Water content [28]: 0.14 % w/w
- PXRD [29]: No change
- Purity [29]: 99.85%
- Water content [29]: 0.16 % w/w
- PXRD [30]: Form RLP
- Purity [30]: 99.84%
- Water content [30]: 0.09 % w/w
- PXRD [31]: No change
- Purity [31]: 99.84%
- Water content [31]: 0.11 % w/w
- PXRD [32]: No change
- Purity [32]: 99.82%
- Water content [32]: 0.13 % w/w
- PXRD [33]: Form RLP
- Purity [33]: 99.84%
- Water content [33]: 0.09 % w/w
- PXRD [34]: No change
- Purity [34]: 99.83%
- Water content [34]: 0.14 % w/w
- PXRD [35]: No change
- Purity [35]: 99.85%
- Water content [35]: 0.11 % w/w
- PXRD [36]: Form RLP
- Purity [36]: 99.84%
- Water content [36]: 0.09 % w/w
- storage stability: stable
Compound: Cc1nc(C(=O)NCC(=O)O)c(O)c2ccc(Oc3ccccc3)cc12.O=C(O)[C@@H]1CCCN1 [Form RLP]
